Measurements reported in patent US20060183902A1, “Dihydroindolyl methanones as alpha 1a/1d adrenoreceptor modulators for the treatment of benign prostatic hypertrophy and lower urinary tract symptoms” (priority 2005, published 2006).
Where “and” joins values, the source holds several entries; their conditions need not be identical. Equal entries are not always repeated.

Tests used:
α1a-AR = molecular target: T1, α1a-AR (Homo sapiens, UniProt P35348); experiment: α1-Adrenergic receptor radio-ligand (125I-HEAT) binding assay, α1a subtype; details: COS-7 cell membranes transfected with α1a-AR, 125I-HEAT 50 pM; read-out: Receptor Binding, Ki α1a-AR
T1 construct: expressed in transfected cells; host or cells: COS-7
T1 sequence (P35348 1-466): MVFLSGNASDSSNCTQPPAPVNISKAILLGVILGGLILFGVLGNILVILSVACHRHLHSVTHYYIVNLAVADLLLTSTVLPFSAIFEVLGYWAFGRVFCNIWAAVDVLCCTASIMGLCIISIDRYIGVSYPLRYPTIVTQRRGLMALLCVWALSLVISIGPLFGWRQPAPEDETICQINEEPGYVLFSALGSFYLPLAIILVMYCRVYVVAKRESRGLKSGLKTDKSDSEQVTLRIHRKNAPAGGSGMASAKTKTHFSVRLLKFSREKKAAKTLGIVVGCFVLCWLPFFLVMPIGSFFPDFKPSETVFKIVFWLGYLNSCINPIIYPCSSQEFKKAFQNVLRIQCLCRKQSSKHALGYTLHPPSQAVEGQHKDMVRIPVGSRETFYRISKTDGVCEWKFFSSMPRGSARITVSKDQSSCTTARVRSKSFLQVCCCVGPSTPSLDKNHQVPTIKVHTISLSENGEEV
Description: (§1) Membranes were prepared from COS-7 cells (African Green monkey kidney SV40-transformed cells) that had been transfected with one of the three α1-AR subtypes by the following method:
(§2) COS cells from ten 100 mm tissue culture plates were scraped into a 5 mL volume of TE (a mixture of 50 mM tris(hydroxymethyl)aminomethane hydrochloride (Tris-HCl) and 5 mM ethylenediaminetetraacetic acid (EDTA) at pH 7.4). The cell suspension was disrupted with a Brinkman Polytron (at a setting of 8) for 10 sec. The disrupted cells were centrifuged at 1000×g for 10 min at 4° C. Supernatants were centrifuged at 34,500×g for 20 min at 4° C. The membrane pellets were suspended in a 2 mL volume of TNE (a mixture of 50 mM Tris-HCl, 5 mM EDTA and 150 mM NaCl at pH7.4). An aliquot of the membrane suspension was stored at −70° C. until use. The protein concentration was determined using a BioRad “DC” protein assay kit following membrane solubilization with Triton X-100.
(§3) Triplicate determinations of radio-ligand binding in the presence of increasing concentrations of testing compound were made. The reagents were added to 96-well polypropylene plate wells. Each assay well contained 140 μL TNE, 25 μL ^125I-2-(β-4-hydroxyplenyl)ethylaminomethyltetralone (^125I-HEAT) (specific activity 2200 Ci/mmol, Dupont-New England Nuclear, 50 pM final), 10 μL testing compound dissolved in dimethyl sulfoxide (DMSO) (1 pM to 10 μM in half-log increments, final), and 25 μL appropriate α1-AR membrane subtype suspension in TNE (0.5 ng/μL for the α1a and α1b subtypes and 13 ng/μL for the α1d subtype). The plate was incubated at rt for 1 hr. The contents of the wells were filtered through a glass filter (type C) (GF/C) membrane Unifilter plate (Packard Instruments) using the Packard Filtermate cell harvester. The filter plates were dried in a vacuum oven for 30 min at 40° C. 25 μL Microscint 20 liquid scintillation fluid (Packard Instuments) was added to each well. The radioactive content was analyzed in the TopCount microplate scintillation counter (Packard Instruments).
(§4) The Ki values (in nM) shown in Table 1 were determined using GraphPad Prism software.

α1b-AR = molecular target: T2, α1b-AR (Homo sapiens, UniProt P35368); experiment: α1-Adrenergic receptor radio-ligand (125I-HEAT) binding assay, α1b subtype; details: COS-7 cell membranes transfected with α1b-AR, 125I-HEAT 50 pM; read-out: Receptor Binding, Ki α1b-AR
T2 construct: expressed in transfected cells; host or cells: COS-7
T2 sequence (P35368 1-520): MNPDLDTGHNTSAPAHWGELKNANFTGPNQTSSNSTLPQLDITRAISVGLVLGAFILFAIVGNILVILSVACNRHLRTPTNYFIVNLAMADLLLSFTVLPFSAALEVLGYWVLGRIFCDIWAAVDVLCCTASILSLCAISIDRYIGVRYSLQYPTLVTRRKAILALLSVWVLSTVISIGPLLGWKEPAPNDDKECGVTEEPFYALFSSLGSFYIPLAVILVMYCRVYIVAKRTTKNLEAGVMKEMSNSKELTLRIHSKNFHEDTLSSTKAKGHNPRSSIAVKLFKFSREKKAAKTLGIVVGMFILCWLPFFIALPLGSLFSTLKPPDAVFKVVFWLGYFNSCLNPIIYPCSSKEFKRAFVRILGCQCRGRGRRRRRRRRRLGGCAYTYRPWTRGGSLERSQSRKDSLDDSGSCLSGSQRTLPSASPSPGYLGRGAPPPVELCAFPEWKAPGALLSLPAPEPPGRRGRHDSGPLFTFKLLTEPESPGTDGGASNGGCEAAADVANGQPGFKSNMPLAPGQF
Description: as §1, §2, §3, §4

α1d-AR = molecular target: T3, α1d-AR (Homo sapiens, UniProt P25100); experiment: α1-Adrenergic receptor radio-ligand (125I-HEAT) binding assay, α1d subtype; details: COS-7 cell membranes transfected with α1d-AR, 125I-HEAT 50 pM; read-out: Receptor Binding, Ki α1d-AR
T3 construct: expressed in transfected cells; host or cells: COS-7
T3 sequence (P25100 1-572): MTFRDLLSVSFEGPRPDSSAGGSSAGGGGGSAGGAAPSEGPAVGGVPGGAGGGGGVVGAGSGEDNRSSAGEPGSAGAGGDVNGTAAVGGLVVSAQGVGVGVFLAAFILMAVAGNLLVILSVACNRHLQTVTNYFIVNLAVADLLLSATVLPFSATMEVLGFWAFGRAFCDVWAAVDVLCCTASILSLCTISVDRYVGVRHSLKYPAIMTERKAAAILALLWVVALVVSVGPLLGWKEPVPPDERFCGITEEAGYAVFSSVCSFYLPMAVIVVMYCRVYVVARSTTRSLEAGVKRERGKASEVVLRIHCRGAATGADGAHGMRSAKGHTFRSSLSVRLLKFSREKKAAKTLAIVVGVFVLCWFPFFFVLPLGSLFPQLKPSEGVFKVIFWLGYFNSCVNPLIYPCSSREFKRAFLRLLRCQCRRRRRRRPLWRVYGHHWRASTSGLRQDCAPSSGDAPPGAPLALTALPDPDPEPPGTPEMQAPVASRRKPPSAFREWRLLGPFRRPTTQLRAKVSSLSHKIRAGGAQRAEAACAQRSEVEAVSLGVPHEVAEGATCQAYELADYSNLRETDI
Description: as §1, §2, §3, §4

| Ki (α1a-AR) | Ki (α1b-AR) | Ki (α1d-AR) | Compound |
| --- | --- | --- | --- |
| 7.8 nM and 3.4 nM | 204 nM and 185 nM | 2.8 nM and 3.2 nM | CC(C)Oc1ccccc1N1CCN(Cc2cccc(C(=O)N3CCc4ccc(N(C(=O)Nc5c(F)cccc5F)C(=O)Nc5c(F)cccc5F)cc43)c2)CC1 [Cpd 43, 3-(2,6-difluoro-phenyl)-1-(1-{3-[4-(2-isopropoxy-phenyl)-piperazin-1-ylmethyl]-benzoyl}-2,3-dihydro-1H-indol-6-yl)-1-(2,6-difluorophenylaminocarbonyl)-urea] |
| 3.8 nM | 447 nM | 5.8 nM | COc1ccc(C(=O)Nc2ccc3c(c2)N(C(=O)c2cccc(CN4CCN(c5ccccc5OC(C)C)CC4)c2)CC3)cc1 [Cpd 42, N-(1-{3-[4-(2-isopropoxy-phenyl)-piperazin-1-ylmethyl]-benzoyl}-2,3-dihydro-1H-indol-5-yl)-4-methoxy-benzamide] |
| 1.3 nM | 82.8 nM | 0.3 nM | CC(C)Oc1ccccc1N1CCN(Cc2cccc(C(=O)N3CCc4cc(Br)ccc43)c2)CC1 [Cpd 66, (5-bromo-2,3-dihydro-indol-1-yl)-{3-[4-(2-isopropoxy-phenyl)-piperazin-1-ylmethyl]-phenyl}-methanone] |
| 1.9 nM | 143 nM | 2 nM | CC(C)Oc1ccccc1N1CCN(Cc2cccc(C(=O)N3CCc4ccc(N)cc43)c2)CC1 [Cpd 5, (6-amino-2,3-dihydro-indol-1-yl)-{3-[4-(2-isopropoxy-phenyl)-piperazin-1-ylmethyl]-phenyl}-methanone] |
| 14 nM | 812 nM | 7.6 nM | CC(C)Oc1ccccc1N1CCN(Cc2cccc(C(=O)N3CCc4cc(NS(N)(=O)=O)ccc43)c2)CC1 [Cpd 17, N-(1-{3-[4-(2-isopropoxy-phenyl)-piperazin-1-ylmethyl]-benzoyl}-2,3-dihydro-1H-indol-5-yl)-sulfamide] |
| 31 nM | 208 nM | 1.5 nM | CC(C)Oc1ccccc1N1CCN(Cc2cccc(C(=O)N3CCc4ccc(NCc5ccc6c(c5)OCO6)cc43)c2)CC1 [Cpd 41, {6-[(benzo[1,3]dioxol-5-ylmethyl)-amino]-2,3-dihydro-indol-1-yl}-{3-[4-(2-isopropoxy-phenyl)-piperazin-1-ylmethyl]-phenyl}-methanone] |
| 105 nM | 146 nM | 101 nM | COc1ccccc1CN1CCN(Cc2cccc(C(=O)N3CCc4ccccc43)c2)CC1 [Cpd 64, (2,3-dihydro-indol-1-yl)-{3-[4-(2-methoxy-benzyl)-piperazin-1-ylmethyl]-phenyl}-methanone] |
| 8.3 nM | 101 nM | 1.1 nM | COc1ccccc1C1CCN(Cc2cccc(C(=O)N3CCc4ccc(NCc5ccccc5F)cc43)c2)CC1 [Cpd 59, [6-(2-fluoro-benzylamino)-2,3-dihydro-indol-1-yl]-{3-[4-(2-methoxy-phenyl)-piperidin-1-ylmethyl]-phenyl}-methanone] |
| 0.4 nM | 121 nM | 0.4 nM | CC(C)Oc1ccccc1C1CCN(Cc2cccc(C(=O)N3CCc4ccc(NC(=O)Nc5c(F)cccc5F)cc43)c2)CC1 [Cpd 60, 1-(2,6-difluoro-phenyl)-3-(1-{3-[4-(2-isopropoxy-phenyl)-piperidin-1-ylmethyl]-benzoyl}-2,3-dihydro-1H-indol-6-yl)-urea] |
| – | – | 0.5 nM and 1.9 nM | O=C(c1cccc(CN2CCN(c3ccccc3OCC(F)(F)F)CC2)c1)N1CCc2ccccc21 [Cpd 63, (2,3-dihydro-indol-1-yl)-(3-{4-[2-(2,2,2-trifluoro-ethoxy)-phenyl]-piperazin-1-ylmethyl}-phenyl)-methanone] |
| 22 nM | – | 4 nM | CC(C)Oc1ccccc1N1CCN(Cc2cccc(C(=O)N3CCc4cc(NC(=O)Nc5ccc(Cl)cc5Cl)ccc43)c2)CC1 [Cpd 14, 1-(2,4-dichloro-phenyl)-3-(1-{3-[4-(2-isopropoxy-phenyl)-piperazin-1-ylmethyl]-benzoyl}-2,3-dihydro-1H-indol-5-yl)-urea] |
| 39 nM | 251 nM | 5 nM | CC(C)Oc1ccccc1N1CCN(Cc2cccc(C(=O)N3CCc4ccc(NC(=O)Nc5ccccc5)cc43)c2)CC1 [Cpd 22, 1-(1-{3-[4-(2-isopropoxy-phenyl)-piperazin-1-ylmethyl]-benzoyl}-2,3-dihydro-1H-indol-6-yl)-3-phenyl-urea] |
| 13 nM | 288 nM | 13 nM | CC(C)Oc1ccccc1N1CCN(Cc2cccc(C(=O)N3CCc4cc(F)ccc43)c2)CC1 [Cpd 68, (5-fluoro-2,3-dihydro-indol-1-yl)-{3-[4-(2-isopropoxy-phenyl)-piperazin-1-ylmethyl]-phenyl}-methanone] |
| 836 nM | – | 250 nM | CCCCCCCCc1ccc(CNc2ccc3c(c2)N(C(=O)c2cccc(CN4CCN(c5ccccc5OC(C)C)CC4)c2)CC3)cc1 [Cpd 10, {3-[4-(2-isopropoxy-phenyl)-piperazin-1-ylmethyl]-phenyl}-[6-(4-octyl-benzylamino)-2,3-dihydro-indol-1-yl]-methanone] |
| 67.5 nM | – | – | CC(C)(C)OC(=O)N1CCN(Cc2cccc(C(=O)N3CCc4ccccc43)c2)CC1 [Cpd 54, 4-[3-(2,3-dihydro-indole-1-carbonyl)-benzyl]-piperazine-1-carboxylic acid tert-butyl ester] |
| 1.3 nM | – | 4.2 nM | CC(C)Oc1ccccc1N1CCN(Cc2cccc(C(=O)N3CCc4ccc(NCc5ccccc5F)cc43)c2)CC1 [Cpd 44, [6-(2-fluoro-benzylamino)-2,3-dihydro-indol-1-yl]-{3-[4-(2-isopropoxy-phenyl)-piperazin-1-ylmethyl]-phenyl}-methanone] |
| 20.8 nM | 847 nM | – | COc1ccc(OC)c2c1CC(Nc1ccc3c(c1)N(C(=O)c1cccc(CN4CCN(c5ccccc5OC(C)C)CC4)c1)CC3)C2 [Cpd 29, [6-(4,7-dimethoxy-indan-2-ylamino)-2,3-dihydro-indol-1-yl]-{3-[4-(2-isopropoxy-phenyl)-piperazin-1-ylmethyl]-phenyl}-methanone] |
